This is an account of results in PubChem BioAssay (NCI).

Among the test systems are MOLT-4 leukemia; K-562 leukemia; HL-60(TB) leukemia; A549 NSCLC; SK-MEL-5 melanoma; HOP-62 NSCLC; HCT-116 colon; NCI-H226 lung; MALME-3M melanoma; RXF 393 renal.
Common to all, as to test: NCI-60 cell line screen, 48 h

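The compound was tested at five concentrations on cells cultured in 96-well plates, with a 48-hour exposure period. TGI is the concentration that stops growth completely.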

As for `CN=C1C=C(/N=C2/C=C(N/C(=C\C#N)C(C)(C)O)OC2(C)C)OC1(C)C`, the TGI in the experiment on MOLT-4 leukemia was greater than 100 µM; in the experiment with K-562 leukemia, 80.4 µM; in the experiment with HL-60(TB) leukemia, 5.83 µM; with A549 NSCLC, greater than 100 µM; in the experiment on SK-MEL-5 melanoma it was greater than 85.7 µM; with HOP-62 NSCLC, greater than 100 µM. Moreover, the figures for the TGI in the experiment on HCT-116 colon, in the experiment with NCI-H226 lung and with MALME-3M melanoma were 69.4 µM, greater than 100 µM and greater than 100 µM, respectively.

In the case of `CN(C)c1ccc(/C=C2\N=C(c3ccccc3)N(c3nc4ccc(Sc5ccccc5)cc4[nH]3)C2=O)cc1`, the TGI in the experiment on MOLT-4 leukemia is greater than 100 µM; in the experiment with K-562 leukemia, 96.6 µM; in the experiment on HL-60(TB) leukemia, 33.3 µM; with A549 NSCLC, greater than 100 µM; with SK-MEL-5 melanoma, greater than 100 µM; in the experiment on HOP-62 NSCLC it was greater than 100 µM. Moreover, the TGI in the experiment on HCT-116 colon, in the experiment on RXF 393 renal and with MALME-3M melanoma was greater than 100 µM in each case.

As for `CCOC(=O)/C(=C/c1cn(C(C)=O)c2ccccc12)P(=O)(OC)OC`, the TGI with MOLT-4 leukemia was 74.6 µM; in the experiment with K-562 leukemia it was greater than 100 µM; with HL-60(TB) leukemia it was 48.4 µM; in the experiment with A549 NSCLC, greater than 100 µM; in the experiment with SK-MEL-5 melanoma, greater than 100 µM; with HOP-62 NSCLC, greater than 100 µM. The compound further had a TGI in the experiment with HCT-116 colon greater than 100 µM.

Take `COc1cc(-c2cc(OC)c(OC)c3ccc(Br)cc23)c2cc(Br)ccc2c1OC`: the TGI was greater than 100 µM with MOLT-4 leukemia; 77.8 µM with K-562 leukemia; 45.2 µM in the experiment with A549 NSCLC; greater than 100 µM with SK-MEL-5 melanoma; 44.7 µM in the experiment with HOP-62 NSCLC; 24.9 µM with HCT-116 colon. The TGI in the experiment with RXF 393 renal was 41 µM; in the experiment on NCI-H226 lung, 58.1 µM; with MALME-3M melanoma it was 52.9 µM.

For `O=c1[nH]c2ccccc2c(=O)n1/N=C\c1ccccc1O`, the TGI in the experiment with MOLT-4 leukemia, in the experiment with K-562 leukemia, with HL-60(TB) leukemia, in the experiment on A549 NSCLC, with SK-MEL-5 melanoma and in the experiment on HOP-62 NSCLC was greater than 100 µM throughout. In addition, the TGI in the experiment on HCT-116 colon and with NCI-H226 lung was greater than 100 µM throughout.

For `Cc1c(-c2ccccc2)oc(=O)c2ccccc12`, the TGI in the experiment on MOLT-4 leukemia is 60.1 µM; in the experiment with K-562 leukemia, greater than 100 µM; in the experiment on A549 NSCLC, greater than 100 µM; with SK-MEL-5 melanoma, 33.8 µM; in the experiment with HOP-62 NSCLC, 43.5 µM; in the experiment on HCT-116 colon it was 56.4 µM. Moreover, the TGI in the experiment on RXF 393 renal was found to be 37.7 µM; in the experiment on NCI-H226 lung, 40.3 µM; in the experiment with MALME-3M melanoma, 52.8 µM.

On to `Cc1cc(C)n(C(=CC(=O)C(Cl)Cl)n2nc(C)cc2C)n1`, for which the TGI with MOLT-4 leukemia amounted to 0.806 µM; with K-562 leukemia, 7.42 µM; in the experiment with HL-60(TB) leukemia, 18.1 µM; in the experiment with A549 NSCLC, 67 µM; in the experiment on SK-MEL-5 melanoma, 20.3 µM; with HOP-62 NSCLC, 17.5 µM. Besides, the TGI with HCT-116 colon turned out to be 6.81 µM; in the experiment with NCI-H226 lung, 2.56 µM; in the experiment with MALME-3M melanoma, 15.7 µM.

`O=C(CCCCCCCCC(=O)N1C(=O)CC(=O)N(c2ccc(Cl)cc2)C1=S)N1C(=O)CC(=O)N(c2ccc(Cl)cc2)C1=S`: the TGI is 75.6 µM in the experiment on MOLT-4 leukemia; greater than 100 µM in the experiment on K-562 leukemia; greater than 100 µM with A549 NSCLC; greater than 100 µM in the experiment on SK-MEL-5 melanoma; greater than 100 µM in the experiment with HOP-62 NSCLC; greater than 100 µM in the experiment on HCT-116 colon. Also, the TGI in the experiment on RXF 393 renal, with NCI-H226 lung and with MALME-3M melanoma was greater than 100 µM throughout.

For the compound `FC(F)(Sc1ncccn1)c1nc2ccccc2o1`, the TGI in the experiment on MOLT-4 leukemia, in the experiment on K-562 leukemia, with A549 NSCLC, in the experiment on SK-MEL-5 melanoma, with HOP-62 NSCLC and in the experiment on HCT-116 colon was greater than 100 µM in each case. Also, the TGI in the experiment with RXF 393 renal, in the experiment with NCI-H226 lung and in the experiment with MALME-3M melanoma was greater than 100 µM in each case.

As to `CCOC(=O)CC1C(C(=O)OCC)=Cn2c([nH]c3cccc4cccc2c43)=C1C(=O)OCC` (stereo not given), the TGI in the experiment with MOLT-4 leukemia, in the experiment with K-562 leukemia, in the experiment on HL-60(TB) leukemia, in the experiment with A549 NSCLC, in the experiment on SK-MEL-5 melanoma and in the experiment with HOP-62 NSCLC was greater than 100 µM throughout. Further, the TGI in the experiment with HCT-116 colon, in the experiment with RXF 393 renal and in the experiment on NCI-H226 lung was greater than 100 µM each time.

Regarding `Nc1ncnc2c1ncn2C1C(O)C=C(CO)C1O` (stereo not given), the TGI in the experiment on HL-60(TB) leukemia, in the experiment on A549 NSCLC, in the experiment on SK-MEL-5 melanoma, with HOP-62 NSCLC, with HCT-116 colon and in the experiment with NCI-H226 lung was greater than 625 µM throughout. In addition, in the experiment with MALME-3M melanoma, the TGI is greater than 625 µM.

With `CCN(CCCl)c1cc(CN(C)C)cc(NC(=O)c2ccc(C(=O)Nc3cccc(N(CCCl)NN)c3)cc2)c1`, the TGI with MOLT-4 leukemia was found to be 0.0285 µM; in the experiment with K-562 leukemia it was 0.199 µM; in the experiment with HL-60(TB) leukemia, 13.1 µM; with A549 NSCLC, 2.52 µM; with SK-MEL-5 melanoma, 0.174 µM; in the experiment with HOP-62 NSCLC it was 10.7 µM. Further, the TGI is 10.1 µM in the experiment on HCT-116 colon, 0.142 µM in the experiment with RXF 393 renal and 0.0939 µM with MALME-3M melanoma.

On to `CN(C)CCCNC(=O)N/N=C/c1ccccn1`, for which the TGI in the experiment with MOLT-4 leukemia, in the experiment on K-562 leukemia, in the experiment on HL-60(TB) leukemia, with A549 NSCLC, in the experiment with SK-MEL-5 melanoma and in the experiment with HOP-62 NSCLC was greater than 10 µM throughout. The TGI with HCT-116 colon, in the experiment on RXF 393 renal and with MALME-3M melanoma was greater than 10 µM throughout.

As for `Nc1c(-c2ccccc2)c2ccc([N+](=O)[O-])cc2c(=O)n1-c1cccc(C(=O)O)c1`, the TGI with MOLT-4 leukemia, with K-562 leukemia, with HL-60(TB) leukemia, in the experiment with A549 NSCLC, in the experiment on SK-MEL-5 melanoma and with HOP-62 NSCLC was greater than 100 µM each time. Moreover, the TGI in the experiment on HCT-116 colon, in the experiment with RXF 393 renal and in the experiment with NCI-H226 lung was greater than 100 µM throughout.

Take `O=C(c1ccccc1)C1C(c2ccccc2[N+](=O)[O-])N1C1CCCCC1` (stereo not given): the TGI was 7.79 µM in the experiment on MOLT-4 leukemia; 8.06 µM in the experiment on K-562 leukemia; 44.2 µM in the experiment on A549 NSCLC; 24.4 µM with SK-MEL-5 melanoma; 34.1 µM with HOP-62 NSCLC; 8.6 µM in the experiment with HCT-116 colon. Moreover, the TGI with RXF 393 renal is 17 µM; with NCI-H226 lung, 34 µM; in the experiment with MALME-3M melanoma it was 29.4 µM.
